# Legend:
# βTC6 cells = experiment: βTC6 cell viability after Tm treatment (MTT); format: cell-based; details: Tm 0.25 μg/mL, 72 h, FIG. 3C
# Source text: (§1) To rule out the possibility of an ATP-specific (rather than viability) effect of the compounds, we used the MTT assay, which measures the activity of NAD(P)H-dependent cellular oxidoreductase enzymes, as an orthogonal method to measure cell viability. […] To confirm that the protective effect of 9c on β cells is not INS-1 cell-specific, another β cell line, βTC6, was used. […] To determine whether the protective effect of 9c on β cells is specific to Tm-induced stress, we used another ER stressor, BFA, which inhibits a key guanine nucleotide exchange factor essential for the transport of proteins from the ER to the Golgi, to treat INS-1 cells.
# (§2) INS-1 cells or βTC6 cells were seeded at 3×10^3 cells/well in a 384-well plate and treated with compounds at the indicated concentrations. After 3 d treatment, the medium was aspirated and 10 μl of MTT reagent (Cayman Chemical, MI, USA, prepared according to manufacturer's instruction) to each well was added and mixed gently for one minute on an orbital shaker. The cells were then incubated for three hours at 37° C. in a CO2 incubator. After incubation, add 100 μl of crystal dissolving solution to each well, and incubate for 4 hours in a 37° C. CO2 incubator. Viability will be measured for the absorbance to each sample at 570 nm using EnVision multilabel plate reader (PerkinElmer, MA, USA).
# ATF4 and CHOP mRNA = experiment: qRT-PCR of ATF4 and CHOP in Tm-treated INS-1 cells; format: cell-based, rat; details: Tm 0.1 μg/mL, 9c 20 μM, FIG. 8A, B
# Source text: We then determined the effect of 9c on the activation of the PERK pathway in β cells under ER stress. Activated PERK phosphorylates eukaryotic translation initiator factor 2a (eIF2α), which in turn attenuates general protein synthesis to relieve ER load. EIF2α phosphorylation also allows the selective translation of ATF4 mRNA, which encodes a transcription factor that induces the expression of the pro-apoptotic gene C/EBP-homologous protein (CHOP). Thus, we used ATF4 and CHOP expression levels as markers of PERK pathway activation. […] Together, our results that 9c inhibited the ER stress-mediated activation of all three UPR pathways indicate that 9c protects β cell survival by alleviating ER stress.
# (§3) INS-1 cells were seeded at 4×10^5 cells/well in 6-well plates and treated with compounds for the indicated times. Total RNA was extracted using TRIzol reagent (Invitrogen, Carlsbad, Calif.) according to the manufacturer's protocol, and 2 μg of total RNA was reverse transcribed using a Superscript kit (Invitrogen). Real-time PCR was performed in 96-well format using SYBR Select Master Mix (Applied Biosystems, Foster City, Calif.) with an ABI 7500 PCR system (Applied Biosystems). The primer sequences used are shown in U.S. Ser. No. 62/542,408, Aug. 8, […].
# INS1 and INS2 mRNA = experiment: qRT-PCR of insulin genes in Tm-treated INS-1 cells; format: cell-based, rat; details: Tm 0.1 μg/mL, 9c 20 μM, 24 h, FIG. 5A, B
# Source text: (§4) ER stress also impairs the most important function of β cells: the biosynthesis and secretion of insulin. Multiple steps of insulin synthesis and secretion are impaired under ER stress; they include insulin gene transcription, insulin mRNA stability, protein translation, and the insulin protein secretory process. First, we examined whether compound 9c could rescue Tm-suppressed mRNA levels of insulin genes. […] Second, we examined whether compound 9c affects the expression of β cell transcription factors PDX1 and MafA, which control β cell identity and the expression of insulin genes. Chronic exposure to supraphysiologic concentrations of glucose and its associated ER stress cause the down-regulation of expression of PDX1 and MafA. Consistent with this notion, Tm decreased the levels of PDX1 and MafA mRNA expression levels in INS-1 cells. […] Next, we explored whether compound 9c re-establishes Tm-impaired glucose-stimulated insulin secretion (GSIS).
# INS-1 cells were seeded at 4×10^5 cells/well in 6-well plates and treated with compounds for the indicated times. Total RNA was extracted using TRIzol reagent (Invitrogen, Carlsbad, Calif.) according to the manufacturer's protocol, and 2 μg of total RNA was reverse transcribed using a Superscript kit (Invitrogen). […]
# INS-1 cells [1] = experiment: MTT viability assay, INS-1 cells treated with Tm; format: cell-based, rat; details: Tm 0.1 μg/mL, 72 h, FIG. 3A
# Source text: as §1, §2
# INS-1 cells [2] = experiment: Glucose-stimulated insulin secretion in Tm-treated INS-1 cells; format: cell-based, rat; details: Tm 0.1 μg/mL, 24 h, 25 mM glucose, FIG. 5E
# Source text: as §4
# INS-1 or primary human islet cells were plated in 96-well plates. […] The secreted insulin was measured with insulin ELISA kits (for mouse insulin from Millipore and for human insulin from LifeTech). Cells were lysed with RIPA buffer (50 mM Tris HCl pH 7.4, 1% NP-40, 0.25% sodium deoxycholate, 150 mM NaCl), and total cellular protein was determined with a Bradford protein assay. […]
# Bip and GRP94 mRNA = experiment: qRT-PCR of Bip and GRP94 in Tm-treated INS-1 cells; format: cell-based, rat; details: Tm 0.1 μg/mL, 9c 20 μM, FIG. 7A, B
# Method: We then asked whether 9c affects the activation of ATF6 in β cells under ER stress. Activated ATF6 acts as a homodimer or as an ATF6-XBP1s heterodimer to control the up-regulation of select UPR target genes including the chaperone proteins BiP and GRP94. We evaluated the effect of 9c on the mRNA levels of chaperones Bip and GRP94 in β cells in the presence of Tm.
# as §3
smiles,measurement,setting,value
"COc1ccc(CNc2nc(N3CCCCC3CO)nc3ccccc23)cc1 (racemic) [Compound 9c, (1-(4-((4-methoxybenzyl)amino)quinazolin-2-yl)piperidin-2-yl)methanol]","viability of βTC6 cells (MTT, NAD(P)H-dependent oxidoreductase activity)",βTC6 cells,rescued the viability of βTC6 cells in a dose-dependent manner
same,ATF4 and CHOP mRNA levels,ATF4 and CHOP mRNA,decrease in both their levels
same,mRNA levels of insulin genes INS1 and INS2,INS1 and INS2 mRNA,completely rescued
same,viability of INS-1 cells (MTT),INS-1 cells [1],increase in viability of INS-1 cells
same,glucose-stimulated insulin secretion (GSIS),INS-1 cells [2],significantly rescued the GSIS
same,Bip and GRP94 mRNA levels,Bip and GRP94 mRNA,almost completely suppressed

# From patent publication US10815219B2, “2,4-diaminoquinazoline derivatives for inhibiting endoplasmic reticulum (ER) stress” (The Board of Regents of the University of Oklahoma, priority 2017, dated 2020)
